Source: patent publication US20220177508A1, “C10-Cyclic Substituted 13-Membered Macrolides and Uses Thereof” (Zikani Therapeutics, Inc., priority 2018, published 2022)
≈ marks a conversion by molar mass, not a printed value.

Legend:
Assay type in all cases: cell-based
S. aureus MP-12 = assay: Broth dilution MIC determination (CLSI), S. aureus MP-12; conditions: Staphylococcus aureus, MP12; strain MP-12, broth dilution
E. coli MP-4 = assay: Broth dilution MIC determination (CLSI), E. coli MP-4; conditions: Escherichia coli, MP4; strain MP-4, broth dilution; read-out: MIC E. coli MP-4
K. pneumoniae MP-546 = assay: Broth dilution MIC determination (CLSI), K. pneumoniae MP-546; conditions: Klebsiella pneumoniae, MP546; strain MP-546, broth dilution
P. aeruginosa MP-3 = assay: Broth dilution MIC determination (CLSI), P. aeruginosa MP-3; conditions: Pseudomonas aeruginosa, MP3; strain MP-3, broth dilution
A. baumannii MP-15 = assay: Broth dilution MIC determination (CLSI), A. baumannii MP-15; conditions: Acinetobacter baumannii, MP15; strain MP-15, broth dilution; read-out: MIC A. baumanii MP-15

SMILES | MIC (S. aureus MP-12) [µg/mL] | MIC (E. coli MP-4) [µg/mL] | MIC (K. pneumoniae MP-546) [µg/mL] | MIC (P. aeruginosa MP-3) [µg/mL] | MIC (A. baumannii MP-15) [µg/mL]
CO[C@]1(C)C[C@@H](C)CN(C)[C@@H](C2CCN(C(C)C)CC2)COC(=O)C(C)(C)C(=O)[C@H](C)[C@H]1O[C@@H]1O[C@H](C)C[C@H](N(C)C)[C@H]1O [Compound 116, (3S,6R,8R,9R,10R)-9-(((2S,3R,4S,6R)-4-(dimethylamino)-3-hydroxy-6-methyltetrahydro-2H-pyran-2-yl)oxy)-3-(1-isopropylpiperidin-4-yl)-8-methoxy-4,6,8,10,12,12-hexamethyl-1-oxa-4-azacyclotridecane-11,13-dione] | 4 to 32 (≈ 6.39 to 51.1 µM) | < 4 | < 4 | > 32 | > 32
CCN1CCC[C@@H]([C@@H]2COC(=O)C(C)(C)C(=O)[C@H](C)[C@@H](O[C@@H]3O[C@H](C)C[C@H](N(C)C)[C@H]3O)[C@](C)(OC)C[C@@H](C)CN2C)C1 [Compound 117, (3R,6R,8R,9R,10R)-9-(((2S,3R,4S,6R)-4-(dimethylamino)-3-hydroxy-6-methyltetrahydro-2H-pyran-2-yl)oxy)-3-((R)-1-ethylpiperidin-3-yl)-8-methoxy-4,6,8,10,12,12-hexamethyl-1-oxa-4-azacyclotridecane-11,13-dione] | > 32 | 4 to 32 (≈ 6.54 to 52.3 µM) | 4 to 32 (≈ 6.54 to 52.3 µM) | > 32 | > 32
CO[C@]1(C)C[C@@H](C)CN(C(=O)OCc2ccccc2)[C@H](C2CCN(C(C)C)CC2)COC(=O)C(C)(C)C(=O)[C@H](C)[C@H]1O[C@@H]1O[C@H](C)C[C@H](N(C)C)[C@H]1O [Compound 118, Benzyl (3R,6R,8R,9R,10R)-9-(((2S,3R,4S,6R)-4-(dimethylamino)-3-hydroxy-6-methyltetrahydro-2H-pyran-2-yl)oxy)-3-(1-isopropylpiperidin-4-yl)-8-methoxy-6,8,10,12,12-pentamethyl-11,13-dioxo-1-oxa-4-azacyclotridecane-4-carboxylate] | > 32 | > 32 | > 32 | > 32 | > 32
CO[C@]1(C)C[C@@H](C)CN(C)[C@H](C2CCN(CC(C)C)CC2)COC(=O)C(C)(C)C(=O)[C@H](C)[C@H]1O[C@@H]1O[C@H](C)C[C@H](N(C)C)[C@H]1O [Compound 121, (3R,6R,8R,9R,10R)-9-(((2S,3R,4S,6R)-4-(dimethylamino)-3-hydroxy-6-methyltetrahydro-2H-pyran-2-yl)oxy)-3-(1-isobutylpiperidin-4-yl)-8-methoxy-4,6,8,10,12,12-hexamethyl-1-oxa-4-azacyclotridecane-11,13-dione] | 4 to 32 (≈ 6.25 to 50 µM) | < 4 | < 4 | > 32 | > 32
CO[C@]1(C)C[C@@H](C)CN(C)[C@H]([C@@H]2CCN(CC(C)C)C2)COC(=O)C(C)(C)C(=O)[C@H](C)[C@H]1O[C@@H]1O[C@H](C)C[C@H](N(C)C)[C@H]1O [Compound 123, (3R,6R,8R,9R,10R)-9-(((2S,3R,4S,6R)-4-(dimethylamino)-3-hydroxy-6-methyltetrahydro-2H-pyran-2-yl)oxy)-3-((R)-1-isobutylpyrrolidin-3-yl)-8-methoxy-4,6,8,10,12,12-hexamethyl-1-oxa-4-azacyclotridecane-11,13-dione] | 4 to 32 (≈ 6.39 to 51.1 µM) | < 4 | 4 to 32 (≈ 6.39 to 51.1 µM) | > 32 | > 32
CO[C@]1(C)C[C@@H](C)CN(C)[C@H](C2CC3CCC(C2)N3C)COC(=O)C(C)(C)C(=O)[C@H](C)[C@H]1O[C@@H]1O[C@H](C)C[C@H](N(C)C)[C@H]1O (stereo partly drawn) [Compound 129, (3R,6R,8R,9R,10R)-9-(((2S,3R,4S,6R)-4-(dimethylamino)-3-hydroxy-6-methyltetrahydro-2H-pyran-2-yl)oxy)-8-methoxy-4,6,8,10,12,12-hexamethyl-3-(8-methyl-8-azabicyclo[3.2.1]octan-3-yl)-1-oxa-4-azacyclotridecane-11,13-dione] | > 32 | < 4 | 4 to 32 (≈ 6.41 to 51.3 µM) | > 32 | > 32
CO[C@]1(C)C[C@@H](C)CN(C)[C@H](C2CCN(C)CC2)[C@H](C)OC(=O)C(C)(C)C(=O)[C@H](C)[C@H]1O[C@@H]1O[C@H](C)C[C@H](N(C)C)[C@H]1O [Compound 130, (2S,3R,6R,8R,9R,10R)-9-(((2S,3R,4S,6R)-4-(dimethylamino)-3-hydroxy-6-methyltetrahydro-2H-pyran-2-yl)oxy)-8-methoxy-2,4,6,8,10,12,12-heptamethyl-3-(1-methylpiperidin-4-yl)-1-oxa-4-azacyclotridecane-11,13-dione] | > 32 | 4 to 32 (≈ 6.54 to 52.3 µM) | > 32 | > 32 | > 32
CO[C@]1(C)C[C@@H](C)CN(C)[C@H](c2ccc(B(O)O)cc2)COC(=O)C(C)(C)C(=O)[C@H](C)[C@H]1O[C@@H]1O[C@H](C)C[C@H](N(C)C)[C@H]1O [Compound 133, (4-((3R,6R,8R,9R,10R)-9-(((2S,3R,4S,6R)-4-(Dimethylamino)-3-hydroxy-6-methyltetrahydro-2H-pyran-2-yl)oxy)-8-methoxy-4,6,8,10,12,12-hexamethyl-11,13-dioxo-1-oxa-4-azacyclotridecan-3-yl)phenyl)boronic acid] | > 32 | 4 to 32 (≈ 6.45 to 51.6 µM) | > 32 | > 32 | > 32
CO[C@]1(C)C[C@@H](C)CN(C)[C@H](C2CNC2)COC(=O)C(C)(C)C(=O)[C@H](C)[C@H]1O[C@@H]1O[C@H](C)C[C@H](N(C)C)[C@H]1O [Compound 134, (3R,6R,8R,9R,10R)-3-(azetidin-3-yl)-9-(((2S,3R,4S,6R)-4-(dimethylamino)-3-hydroxy-6-methyltetrahydro-2H-pyran-2-yl)oxy)-8-methoxy-4,6,8,10,12,12-hexamethyl-1-oxa-4-azacyclotridecane-11,13-dione] | > 32 | < 4 | 4 to 32 (≈ 7.2 to 57.6 µM) | > 32 | > 32
CO[C@]1(C)C[C@@H](C)CN(C)[C@@H]([C@H]2CC[C@H](N(C)C)CC2)COC(=O)C(C)(C)C(=O)[C@H](C)[C@H]1O[C@@H]1O[C@H](C)C[C@H](N(C)C)[C@H]1O [Compound 137, (3S,6R,8R,9R,10R)-9-(((2S,3R,4S,6R)-4-(dimethylamino)-3-hydroxy-6-methyltetrahydro-2H-pyran-2-yl)oxy)-3-((1r,4S)-4-(dimethylamino)cyclohexyl)-8-methoxy-4,6,8,10,12,12-hexamethyl-1-oxa-4-azacyclotridecane-11,13-dione] | > 32 | 4 to 32 (≈ 6.39 to 51.1 µM) | 4 to 32 (≈ 6.39 to 51.1 µM) | > 32 | > 32
CO[C@]1(C)C[C@@H](C)CN(C)[C@@H]([C@H]2CCN(C(C)=O)C2)COC(=O)C(C)(C)C(=O)[C@H](C)[C@H]1O[C@@H]1O[C@H](C)C[C@H](N(C)C)[C@H]1O [Compound 140, (3S,6R,8R,9R,10R)-3-((S)-1-acetylpyrrolidin-3-yl)-9-(((2S,3R,4S,6R)-4-(dimethylamino)-3-hydroxy-6-methyltetrahydro-2H-pyran-2-yl)oxy)-8-methoxy-4,6,8,10,12,12-hexamethyl-1-oxa-4-azacyclotridecane-11,13-dione] | > 32 | 4 to 32 (≈ 6.54 to 52.3 µM) | > 32 | > 32 | > 32
CO[C@]1(C)C[C@@H](C)CN(C)[C@H](C2CCN(S(C)(=O)=O)CC2)COC(=O)C(C)(C)C(=O)[C@H](C)[C@H]1O[C@@H]1O[C@H](C)C[C@H](N(C)C)[C@H]1O [Compound 142, (3R,6R,8R,9R,10R)-9-(((2S,3R,4S,6R)-4-(dimethylamino)-3-hydroxy-6-methyltetrahydro-2H-pyran-2-yl)oxy)-8-methoxy-4,6,8,10,12,12-hexamethyl-3-(1-(methylsulfonyl)piperidin-4-yl)-1-oxa-4-azacyclotridecane-11,13-dione] | 4 to 32 (≈ 6.04 to 48.3 µM) | 4 to 32 (≈ 6.04 to 48.3 µM) | 4 to 32 (≈ 6.04 to 48.3 µM) | > 32 | > 32
CO[C@]1(C)C[C@@H](C)CN(C)[C@H](C2CCN(C(C)C)CC2)[C@H](C)OC(=O)C(C)(C)C(=O)[C@H](C)[C@H]1O[C@@H]1O[C@H](C)C[C@H](N(C)C)[C@H]1O [Compound 147, (2S,3R,6R,8R,9R,10R)-9-(((2S,3R,4S,6R)-4-(dimethylamino)-3-hydroxy-6-methyltetrahydro-2H-pyran-2-yl)oxy)-3-(1-isopropylpiperidin-4-yl)-8-methoxy-2,4,6,8,10,12,12-heptamethyl-1-oxa-4-azacyclotridecane-11,13-dione] | > 32 | 4 to 32 (≈ 6.25 to 50 µM) | 4 to 32 (≈ 6.25 to 50 µM) | > 32 | > 32
CO[C@]1(C)C[C@@H](C)CN(C)[C@H]([C@@H]2CCN(C(=O)CN(C)C)C2)COC(=O)C(C)(C)C(=O)[C@H](C)[C@H]1O[C@@H]1O[C@H](C)C[C@H](N(C)C)[C@H]1O [Compound 148, (3R,6R,8R,9R,10R)-9-(((2S,3R,4S,6R)-4-(Dimethylamino)-3-hydroxy-6-methyltetrahydro-2H-pyran-2-yl)oxy)-3-((R)-1-(dimethylglycyl)pyrrolidin-3-yl)-8-methoxy-4,6,8,10,12,12-hexamethyl-1-oxa-4-azacyclotridecane-11,13-dione] | > 32 | < 4 | 4 to 32 (≈ 6.11 to 48.9 µM) | > 32 | > 32
CO[C@]1(C)C[C@@H](C)CN(C)[C@@H](C2CN(C(=O)C(C)(C)N(C)C)C2)COC(=O)C(C)(C)C(=O)[C@H](C)[C@H]1O[C@@H]1O[C@H](C)C[C@H](N(C)C)[C@H]1O [Compound 149] | > 32 | < 4 | 4 to 32 (≈ 5.98 to 47.8 µM) | > 32 | > 32
